Measured values reported in PMC6130489, “Caffeic acid methyl and ethyl esters exert potential antidiabetic effects on glucose and lipid metabolism in cultured murine insulin-sensitive cells through mechanisms implicating activation of AMPK” (Pharmaceutical Biology, 2017).
Values joined by “and” are separate entries in the source; they are usually repeats but may differ in a detail not shown here. Identical values can stand only once.

Columns and labels:
[1] = tested on: GLUT4; test: Western immunoblot GLUT4 protein content in L6 myotubes; assay type: cell-based, rat; conditions: 50 μM, 18 h, GLUT4/β-actin
Procedure: L6 cells myotubes, H4IIE cells and 3T3-L1 adipocytes were treated with either CAME, CAEE (50 μM each) or vehicle (DMSO) for 18 h. Insulin (100 nM) or aminoimidazole carboxamide ribonucleotide (AICAR; 1 mM) were added to some vehicle-treated wells 30 min prior to the end of the treatment and served as the positives controls. Protein content was assayed by the bicinchoninic acid method (Thermo Scientific Pierce Protein Research, Rockford, IL) standardized to bovine serum albumin. Western immunoblotting was performed as described elsewhere (Eid et al. [2010]). […] Immunoreactive bands were visualized by enhanced chemiluminescence and quantified by the Scion Image program (Scion Corporation, Frederick, MD). […]
Figure 1. […] Cells were treated as previously described, cell surface GLUT4myc was detected by an enzyme-linked colorimetric assay. […] Results represent the means ± SEM of three independent experiments, and 3-4 cells were analyzed for each condition per experiment. *Indicates a significant (p ≤ 0.05) difference, **(p < 0.01) from the vehicle control group as assessed by ANOVA. […] Data are expressed as (D) phospho-AMPK/β-actin, (E) GLUT4/β-actin and (F) GLUT1/β-actin and are given as mean ± SEM from 3 experiments. *p < 0.05 indicates a significant difference, **(p < 0.01) from the vehicle control group.

[2] = tested on: GLUT4myc; test: Cell surface GLUT4myc (GLUT4 translocation), OPD assay; assay type: cell-based, rat; conditions: 50 μM, 18 h; L6-GLUT4myc
Procedure: L6-GLUT4myc myotubes grown in 24-well plates were serum-starved for 4 h and were incubated with either CAME or CAEE (50 μM) for 18 h or insulin (100 nM) for 15 min. Cell-surface GLUT4myc levels were measured by an antibody-coupled colorimetric assay (Niu et al. [2003]) using O-phenylenediamine dihydrochloride (OPD) reagent (1 mL/well) (Sigma-Aldrich, St. Louis, MO), an anti-c-myc antibody (1:200 dilution; Santa Cruz Biotechnology, Santa Cruz, CA) and horseradish peroxidase (HRP)-conjugated goat anti-rabbit IgG at 4 °C (1:1000 dilution; Cell Signaling Technologies, Danvers, MA).
Figure 1. (A) CAME and CAEE increase ^3H-deoxyglucose uptake in L6 GLUT4myc myotubes. Cells were treated with 50 μM of either CAME, CAEE, or with vehicle (0.1% DMSO) for 18 h. 100 nM insulin served as the positive control and was applied for the last 15 min of the treatment in vehicle-treated cells. Glucose uptake was performed as described in Materials and Methods section. (B) CAME and CAEE stimulate GLUT4 translocation in L6 GLUT4myc myotubes. Cells were treated as previously described, cell surface GLUT4myc was detected by an enzyme-linked colorimetric assay. By the end of the treatment, L6- GLUT4myc cells were labeled with anti-c-myc antibody as described in Materials and Methods section. Results represent the means ± SEM of three independent experiments, and 3-4 cells were analyzed for each condition per experiment. *Indicates a significant (p ≤ 0.05) difference, **(p < 0.01) from the vehicle control group as assessed by ANOVA. […] L6 myotubes treated with CAME or CAEE (50 μM each), DMSO (0.1%) for 18 h. Insulin (100 nM) and AICAR (2 mM) both applied for 30 min and served as positive controls. Immunoblots were probed with anti phospho-AMPK (Thr 172), anti-GLUT4, anti-GLUT1 and anti-phospho-Akt (Ser 473) antibodies as described in Materials and Methods section. […] Data are expressed as (D) phospho-AMPK/β-actin, (E) GLUT4/β-actin and (F) GLUT1/β-actin and are given as mean ± SEM from 3 experiments. *p < 0.05 indicates a significant difference, **(p < 0.01) from the vehicle control group.

[3] = tested on: 3T3-L1 pre-adipocytes; test: Thymidine incorporation assay (mitotic clonal expansion); assay type: cell-based; conditions: Mus musculus, 3T3-L1 cells undergoing mitotic clonal expansion; for IC50: read-out: thymidine incorporation inhibition IC50
Procedure: To assess for the inhibitory activity of CAME and CAEE on and mitotic clonal expansion of 3T3-L1 adipocytes, cells were separately treated with 12.5, 25, 50 and 100 μM of CAME or CAEE for […] in differentiation media and the incorporation of radio-labeled methyl-^3H-thymidine (MP Biomedicals cat #240410, Irvine, CA) into the newly replicated DNA was measured as described elsewhere (Martineau et al. [2010]). The incorporated radioactivity was measured in a liquid scintillation counter (LKB Wallac 1219 Rackbeta; Perkin Elmer Life and Analytical Sciences, Inc., Boston, MA).
Figure 3. (A and B) Anti-adipogenic effect of CAME and CAEE in 3T3-L1 adipocytes. Cells were treated with several concentrations (12.5, 25, 50 and100 μM) of either CAME or CAEE in DMEM containing 10% FBS and the standard adipogenic cocktail (500 μM 3-isobutyl-1-methylxanthine, 500 nM insulin and 10 μM dexamethasone) for 2 days then in DMEM containing 10% FBS and 500 nM insulin starting from days 2-8 of differentiation. This medium was changed every 2 days. (A) On day 8, lipid content was measured by AdipoRed assay. Results represent the means ± SEM of three independent experiments. *Indicates a significant (p ≤ 0.05) difference, **(p < 0.01), ***(p < 0.001) from the vehicle control group. […] Vehicle-treated cells show the presence of lipid droplets. On the other hand, cells treated with the maximum nontoxic concentration (100 μM) of either CAME or CAEE retained the fibroblast-like morphology of pre-adipocytes and were devoid of lipid droplets. (C) CAME and CAEE inhibit pre-adipocyte clonal expansion. Confluent 3T3-L1 pre-adipocytes undergoing clonal expansion in response to differentiation cues were treated with vehicle or 12.5, 25, 50 and 100 μM of either CAME or CAEE for 20 h and incorporation of ^3H-labeled thymidine was measured. Normalized data are presented as mean ± SEM of three independent experiments. **Indicates a significant (p ≤ 0.01) difference, ***(p < 0.001) from the vehicle control group.

[4] = tested on: L6 GLUT4myc myotubes; test: 3H-Deoxyglucose uptake assay; assay type: cell-based, rat; conditions: 50 μM, 18 h; for 2-deoxyglucose uptake rate: basal (DMSO) 10.1 ± 0.5
Procedure: Measurement of glucose uptake was performed as previously described (Eid et al. [2010]) using [^3H]-2-deoxyglucose (TRK-383, Amersham Biosciences, Buckinghamshire, UK). Nonspecific uptake was measured in the presence of cytochalasin B (10 μM) and was subtracted from all values.
Figure 1. (A) CAME and CAEE increase ^3H-deoxyglucose uptake in L6 GLUT4myc myotubes. Cells were treated with 50 μM of either CAME, CAEE, or with vehicle (0.1% DMSO) for 18 h. 100 nM insulin served as the positive control and was applied for the last 15 min of the treatment in vehicle-treated cells. Glucose uptake was performed as described in Materials and Methods section. (B) CAME and CAEE stimulate GLUT4 translocation in L6 GLUT4myc myotubes. Cells were treated as previously described, cell surface GLUT4myc was detected by an enzyme-linked colorimetric assay. By the end of the treatment, L6- GLUT4myc cells were labeled with anti-c-myc antibody as described in Materials and Methods section. Results represent the means ± SEM of three independent experiments, and 3-4 cells were analyzed for each condition per experiment. *Indicates a significant (p ≤ 0.05) difference, **(p < 0.01) from the vehicle control group as assessed by ANOVA. […] L6 myotubes treated with CAME or CAEE (50 μM each), DMSO (0.1%) for 18 h. Insulin (100 nM) and AICAR (2 mM) both applied for 30 min and served as positive controls. Immunoblots were probed with anti phospho-AMPK (Thr 172), anti-GLUT4, anti-GLUT1 and anti-phospho-Akt (Ser 473) antibodies as described in Materials and Methods section. Anti-β-actin antibody was used as a loading control. Representative blots are shown in panel C. Data are expressed as (D) phospho-AMPK/β-actin, (E) GLUT4/β-actin and (F) GLUT1/β-actin and are given as mean ± SEM from 3 experiments. *p < 0.05 indicates a significant difference, **(p < 0.01) from the vehicle control group.

## COC(=O)/C=C/c1ccc(O)c(O)c1 [CAME, CA methyl ester]
[1]
  GLUT4 content, fold compared to DMSO: ~2.7 fold
[2]
  GLUT4 translocation, fold relative to DMSO: 1.73 ± 0.18 fold and 1.79 ± 0.18 fold
[3]
  IC50: 39.4 µM
  inhibition at 100 µM: 92.7 ± 2.6%
[4]
  glucose uptake, percent of DMSO control: 184 ± 16%
  2-deoxyglucose uptake rate: 18.7 ± 0.8 pmol/min/mg protein

## CCOC(=O)/C=C/c1ccc(O)c(O)c1 [CAEE, caffeic acid ethyl ester]
[1]
  GLUT4 content, fold compared to DMSO: ~3.2 fold
[2]
  GLUT4 translocation, fold relative to DMSO: 1.95 ± 0.30 fold
[3]
  IC50: 13.1 µM
  inhibition at 100 µM: 86.9 ± 3%
[4]
  glucose uptake, percent of DMSO control: 216 ± 19%
  2-deoxyglucose uptake rate: 21.9 ± 1.0 pmol/min/mg protein
